Converted amounts (≈) assume the structure as drawn. The source made the active and inactive calls. The rule behind the calls is not given here.
How the values were obtained:
HepG2 [1] = experiment: Cell cycle arrest in human HepG2 cells assessed as accumulation at G2/M phase at 8 ug/mL after 24 hrs by propidium iodide staining-based flow cytometric analysis (reference value: 9%); assay type: functional
HepG2 [2] = experiment: Induction of apoptosis in human HepG2 cells assessed as membrane damage at 4.8 to 8 ug/mL after 24 hrs by acridine orange/ethidium bromide staining-based fluorescence microscopic analysis; assay type: functional, cell-based
HepG2 [3] = experiment: Cell cycle arrest in human HepG2 cells assessed as accumulation at sub-G1 phase at 3.2 ug/mL after 48 hrs by propidium iodide staining-based flow cytometric analysis (reference value: 3%); assay type: functional
H22 [4] = experiment: Antitumor activity against mouse H22 cells allografted in Kunming mouse assessed as decrease in weight of tumor mass at 0.5 mg/kg/day, ip administered 8 days measured after 10 days relative to control; assay type: functional; set-up: scale not given: the % may be the effect or the level left; conditions: route intraperitoneal
HepG2 [5] = experiment: Induction of apoptosis in human HepG2 cells assessed as PARP cleavage at 1.6 to 4.8 ug/mL after 24 hrs by Western blot analysis; assay type: functional, cell-based
HepG2 [6] = experiment: Induction of apoptosis in human HepG2 cells assessed as appearance of cell shrinkage at 4.8 to 8 ug/mL after 24 hrs by inverted microscopic analysis relative to control; assay type: functional, cell-based
HepG2 [7] = experiment: Cell cycle arrest in human HepG2 cells assessed as accumulation at G1 phase at 4.8 ug/mL after 48 hrs by propidium iodide staining-based flow cytometric analysis (reference value: 64%); assay type: functional
HepG2 [8] = experiment: Cell cycle arrest in human HepG2 cells assessed as accumulation at S phase at 3.2 ug/mL after 24 hrs by propidium iodide staining-based flow cytometric analysis (reference value: 46%); assay type: functional
HepG2 [9] = experiment: Cell cycle arrest in human HepG2 cells assessed as accumulation at G2/M phase at 6.4 ug/mL after 48 hrs by propidium iodide staining-based flow cytometric analysis (reference value: 5%); assay type: functional
HepG2 [10] = experiment: Cell cycle arrest in human HepG2 cells assessed as accumulation at S phase at 4.8 ug/mL after 48 hrs by propidium iodide staining-based flow cytometric analysis (reference value: 31%); assay type: functional
HepG2 [11] = experiment: Cell cycle arrest in human HepG2 cells assessed as accumulation at G2/M phase at 8 ug/mL after 48 hrs by propidium iodide staining-based flow cytometric analysis (reference value: 5%); assay type: functional
HepG2 [12] = experiment: Cell cycle arrest in human HepG2 cells assessed as accumulation at G1 phase at 4.8 ug/mL after 24 hrs by propidium iodide staining-based flow cytometric analysis (reference value: 45%); assay type: functional
HepG2 [13] = experiment: Cell cycle arrest in human HepG2 cells assessed as accumulation at sub-G1 phase at 4.8 ug/mL after 24 hrs by propidium iodide staining-based flow cytometric analysis (reference value: 4%); assay type: functional
HepG2 [14] = experiment: Cell cycle arrest in human HepG2 cells assessed as accumulation at sub-G1 phase at 1.6 ug/mL after 48 hrs by propidium iodide staining-based flow cytometric analysis (reference value: 3%); assay type: functional
HepG2 [15] = experiment: Cell cycle arrest in human HepG2 cells assessed as accumulation at S phase at 6.4 ug/mL after 24 hrs by propidium iodide staining-based flow cytometric analysis (reference value: 46%); assay type: functional
HepG2 [16] = experiment: Cytotoxicity against human HepG2 cells assessed as cell viability after 72 hrs by MTT assay; assay type: functional, cell-based; conditions: HepG2, 72 h
HepG2 [17] = experiment: Cytotoxicity against human HepG2 cells assessed as decrease in cell viability after 24 to 72 hrs by MTT assay; assay type: functional, cell-based
HepG2 [18] = experiment: Induction of apoptosis in human HepG2 cells assessed as decrease in Bcl-2 level at 1.6 to 4.8 ug/mL after 24 hrs by Western blot analysis; assay type: functional, cell-based
HepG2 [19] = experiment: Cell cycle arrest in human HepG2 cells assessed as accumulation at sub-G1 phase at 8 ug/mL after 24 hrs by propidium iodide staining-based flow cytometric analysis (reference value: 4%); assay type: functional
HepG2 [20] = experiment: Induction of apoptosis in human HepG2 cells assessed as mitochondrial cytochrome c-dependent caspase-3 activation at 1.6 to 4.8 ug/mL after 24 hrs by Western blot analysis; assay type: functional, cell-based
HepG2 [21] = experiment: Cell cycle arrest in human HepG2 cells assessed as accumulation at S phase at 1.6 ug/mL after 48 hrs by propidium iodide staining-based flow cytometric analysis (reference value: 31%); assay type: functional
HepG2 [22] = experiment: Cell cycle arrest in human HepG2 cells assessed as accumulation at G1 phase at 6.4 ug/mL after 24 hrs by propidium iodide staining-based flow cytometric analysis (reference value: 45%); assay type: functional
HepG2 [23] = experiment: Cell cycle arrest in human HepG2 cells assessed as accumulation at G2/M phase at 1.6 ug/mL after 24 hrs by propidium iodide staining-based flow cytometric analysis (reference value: 9%); assay type: functional
HepG2 [24] = experiment: Induction of apoptosis in human HepG2 cells assessed as appearance of membrane blebbing at 4.8 to 8 ug/mL after 24 hrs by inverted microscopic analysis relative to control; assay type: functional, cell-based
H22 [25] = experiment: Antitumor activity against mouse H22 cells allografted in Kunming mouse assessed as decrease in weight of tumor mass at 1 mg/kg/day, ip administered 8 days measured after 10 days relative to control; assay type: functional; set-up: scale not given: the % may be the effect or the level left; conditions: route intraperitoneal
HepG2 [26] = experiment: Induction of apoptosis in human HepG2 cells assessed as mitochondrial cytochrome c-dependent caspase-9 activation at 1.6 to 4.8 ug/mL after 24 hrs by Western blot analysis; assay type: functional, cell-based
HepG2 [27] = experiment: Cell cycle arrest in human HepG2 cells assessed as accumulation at G1 phase at 8 ug/mL after 24 hrs by propidium iodide staining-based flow cytometric analysis (reference value: 45%); assay type: functional
HepG2 [28] = experiment: Cell cycle arrest in human HepG2 cells assessed as accumulation at G2/M phase at 3.2 ug/mL after 24 hrs by propidium iodide staining-based flow cytometric analysis (reference value: 9%); assay type: functional
HepG2 [29] = experiment: Cell cycle arrest in human HepG2 cells assessed as accumulation at sub-G1 phase at 8 ug/mL after 48 hrs by propidium iodide staining-based flow cytometric analysis (reference value: 3%); assay type: functional
HepG2 [30] = experiment: Cell cycle arrest in human HepG2 cells assessed as accumulation at G1 phase at 6.4 ug/mL after 48 hrs by propidium iodide staining-based flow cytometric analysis (reference value: 64%); assay type: functional

COC1=CC(=O)c2c(O)cccc2C1=O
Activity (HepG2 [1]): 0% | Activity (HepG2 [2]): Active | Activity (HepG2 [3]): 4% | Activity (H22 [4]): 56% | Activity (HepG2 [5]): Active | Activity (HepG2 [6]): Active | Activity (HepG2 [7]): 32% | Activity (HepG2 [8]): 64% | Activity (HepG2 [9]): 2% | Activity (HepG2 [10]): 66% | Activity (HepG2 [11]): 0% | Activity (HepG2 [12]): 38% | Activity (HepG2 [13]): 7% | Activity (HepG2 [14]): 6% | Activity (HepG2 [15]): 61% | IC50 (HepG2 [16]): 2.7 µg/mL (≈ 13.2 µM) | Activity (HepG2 [17]): Dose-dependent effect | Activity (HepG2 [18]): Active | Activity (HepG2 [19]): 7% | Activity (HepG2 [20]): Active | Activity (HepG2 [21]): 49% | Activity (HepG2 [22]): 37% | Activity (HepG2 [23]): 1% | Activity (HepG2 [24]): Active | Activity (H22 [25]): 67% | Activity (HepG2 [26]): Active | Activity (HepG2 [27]): 41% | Activity (HepG2 [28]): 2% | Activity (HepG2 [29]): 33% | Activity (HepG2 [30]): 46%

Reference: ChEMBL document CHEMBL2375211, “2-methoxyjuglone induces apoptosis in HepG2 human hepatocellular carcinoma cells and exhibits in vivo antitumor activity in a H22 mouse hepatocellular carcinoma model” (J Nat Prod, 2013)
